Measured values from PMC10343887, “Structural Optimization of BIPPO Analogs as Potent Antimalarials” (Molecules, 2023).

Columns and labels:
P. falciparum = experiment: Antimalarial screening against asexual blood stage P. falciparum; format: cell-based, Plasmodium falciparum
Description: Previously, Howard et al. reported (sub)micromolar activity against P. falciparum for a series of BIPPO analogs with benzyl substituents. To further understand the structure–activity relationship (SAR) of this interesting scaffold, close analogs of 3 with substituents at R^1–R^4 positions were tested against P. falciparum and human MRC-5 cells as the control for non-specific toxicity (Table 1).
The assay for antimalarial activity was carried out as described in detail in Pereira et al..

human MRC-5 cells = experiment: Non-specific toxicity control on human MRC-5 cells; format: cell-based
[1] = Metabolic stability in human liver microsomes (S9 fraction); format: in vitro ADME; conditions: one hour incubation, Phase I and Phase II metabolism
Description: (§1) Thus, compounds 23, 28–30, 47a and 47b with high potencies (pIC50 > 6) were evaluated for their in vitro metabolic stability in human and mouse liver microsomes (S9 fraction) with diclofenac as a reference compound. As summarized in Figure 2, substituents in the R^4 position affect metabolic stability. […] Their stability against mouse liver microsomes is lower, especially for their Phase I metabolism; only 38% and 26% of the parent compounds are left for 23 and 29 after one hour of incubation. […] For the adamantanyl analogs 30, 47a and 47b, metabolic stability differs drastically, with Phase I identified as the main metabolic pathway. Analog 47b was metabolized for >95% within 30 min with mouse liver microsomes, while 90% of 47a (tert-butyl analog) was left after one hour of incubation.
(§2) The assay for metabolic stability in human and mouse liver microsomal fractions (S9) was performed as described.

[2] = Metabolic stability in mouse liver microsomes (S9 fraction); format: in vitro ADME; conditions: for metabolic stability in mouse liver microsomes (in words) / parent compound left: mouse liver microsomes; for parent compound left: one hour of incubation; for metabolic stability relative to diclofenac: mouse Phase I assay
Description: as §1, §2

[3] = Non-specific toxicity control on human MRC-5 cells; format: cell-based; conditions: human MRC-5 cells; average values n ≥ 2, s.d. < 0.3; read-out: MRC-5 pIC50 (converted)
[4] = potency against asexual blood stage of P. falciparum, average values n ≥ 2, s.d. < 0.3

Compound | fold decreased antimalarial potency compared to 3 (P. falciparum; P. falciparum, relative to 3) | P. fal pIC50 (P. falciparum; [4]) | MRC-5 pIC50 (human MRC-5 cells; human MRC-5 cells, average values n ≥ 2, s.d. < 0.3) | IC50 (P. falciparum; Plasmodium falciparum, potency against asexual blood stage of P. falciparum, average values n ≥ 2, s.d. < 0.3, read-out: P. fal pIC50 (converted)) [µM] | parent compound remaining [1] | metabolic stability in mouse liver microsomes (in words) [2] | parent compound left ([2]; phase not given) [%] | IC50 [3] [µM] | fold potency increase compared with 3 (P. falciparum; P. falciparum, relative to 3) | metabolic stability relative to diclofenac [2] | parent compound left ([2]; Phase I metabolism) [%] | toxicity for human MCR-5 cells (in words) (human MRC-5 cells)
5-(Benzyloxy)-3-isopropyl-1,6-dihydro-7H-pyrazolo[4,3-d]pyrimidin-7-one [compound 5] | 5- to 25 fold | 5.2 | < 4.2 | – | – | – | – | – | – | – | – | –
CC(C)c1n[nH]c2c(=O)[nH]c(C3CCC(F)(F)CC3)nc12 [compound 28, 5-(4,4-Difluorocyclohexyl)-3-isopropyl-1,6-dihydro-7H-pyrazolo[4,3-d]pyrimidin-7-one] | – | 6.0 | – | < 1 | more than 50% | favorable metabolic stability | 68 | > 63.1 | – | – | – | –
CC(C)c1n[nH]c2c(=O)[nH]c(C3CCCCC3)nc12 [compound 23, 5-Cyclohexyl-3-isopropyl-1,6-dihydro-7H-pyrazolo[4,3-d]pyrimidin-7-one] | – | – | – | – | more than 50% | favorable metabolic stability | – | > 63.1 | five | metabolized faster than diclofenac | 38 | –
CC(C)c1n[nH]c2c(=O)[nH]c(C34CC5CC(CC(C5)C3)C4)nc12 [compound 30, 5-(Adamantan-1-yl)-3-isopropyl-1,6-dihydro-7H-pyrazolo[4,3-d]pyrimidin-7-one] | – | – | – | – | – | – | – | > 63.1 | eight | metabolized faster than diclofenac | – | without showing noticeable toxicity
CC(C)c1n[nH]c2c(=O)[nH]c(C34CCC(CC3)CC4)nc12 [compound 29, 5-(Bicyclo[2.2.2]octan-1-yl)-3-isopropyl-1,6-dihydro-7H-pyrazolo[4,3-d]pyrimidin-7-one] | – | – | – | – | more than 50% | favorable metabolic stability | – | > 63.1 | – | metabolized faster than diclofenac | 26 | –
